Values joined by “and” are separate entries in the source; they are usually repeats but may differ in a detail not shown here. Equal values may be shown once.
Experiments:
[1] = system: L. infantum life stage forms (promastigote and amastigote); settings: Cortes et al., 2015; cited from earlier work
[2] = system: anti-L. infantum specific immunoglobulins G (IgG); experiment: Serological monitoring by quantitative IFAT in the field trial; assay type: in vivo, dogs; settings: for Leishmania-antibody titers (mean ± SD), IFAT: artesunate 25 mg/kg orally 6 days, Glucantime 100 mg/kg s.c. 28 days + allopurinol 30 mg/kg orally one month
Method: (§1) Selected dogs were included randomly to one of the two treatment arms. Dogs (N=26) in the Group 1: (positive control) received 100 mg/kg Antimoniate of meglumine (Glucantime®, Merial, France) daily for 28 days subcutaneously, and 30 mg/kg allopurinol (Allopurinol Arraw® 300 mg, France) orally daily for one month. Dogs (N=16) in the Group 2: (chemotherapy of the invention) received 25 mg/kg artesunate (Asu-Denk®; Denk Pharma, Germany) orally for 6 days. […] Dogs were followed up for 180 days (Figure 1).
(§2) Animals were checked on days D0, D+30, D+90 and D+180 after the treatment had started and blood samples were collected each time-points. Clinical signs and lesions associated with leishmaniosis, infection status (parasite load-qPCR and serological) were evaluated and monitored in these points.
At day 0, the immunochromatographic based qualitative rapid test WITNESS® Leishmania (Zoetis, France) was performed according to the manufacturer's instructions using one drop (10 µL) of whole blood from each dog directly after sampling. Quantitative IFAT for the titration of anti-L. infantum specific immunoglobulins G (IgG) was performed on sera for the monitoring as described previously. Briefly, plate wells were sensitized by 20 µL of L. infantum commercial antigens (Zoetis, France). After dilution to 1:50, 20 µl of every serum dilution was applied per well and plates were incubated for 30 min at 37 °C. Plates were washed twice with PBS for 5 min and once with distilled water. 20 µL of IgG anti-dog conjugated with fluorescein isothiacyanate (FITC) (Sigma-Aldrich, St Louis, MO, USA) were added into each well. The plates were incubated for 30 min at 37 °C in the dark. After another washing step, some drops of mounting medium were added on the cover slips and reading was performed. To avoid errors of observation, all samples were examined by two different investigators and positive and negative controls were added in each plate. All samples negative at 1:50 were considered negative. Positive results were further investigated using a […] serial dilution IFAT at 1:100 to 1:1600. At this point, the samples were classified as a high positive for L. infantum (> 1:1600).

L. infantum DNA = experiment: Parasite load-qPCR in blood (kDNA) in the field trial; assay type: in vivo, dogs; design: Parasitemia (% of reduction): concentration or dose not given beside the values; settings: for Parasitemia No. Leish/mL of blood / Parasitemia (% of reduction): individual dogs (one table line per dog); for Parasitemia No. Leish/mL of blood: artesunate 25 mg/kg orally 6 days, Glucantime 100 mg/kg s.c. 28 days + allopurinol 30 mg/kg orally one month
Method: as §1, §2
Blood samples collected in each time-point were analyzed for quantification of parasitic load by qPCR using primers and probe for detection and quantification of L. infantum DNA, targeting a conserved region of the kinetoplast minicircle DNA (kDNA) (several 1000's-fold repeated sequence). Prior to DNA extraction, 200 µL of blood were digested with proteinase K and incubated at +56°C overnight. Extraction was performed using a commercial DNA extraction kit (QIAamp DNA Mini Kit®, [Qiagen, Courtaboeuf, France]) and performed on BIOROBOT EZ1 (Qiagen, Qiagen, Courtaboeuf, France) per the manufacturer's instructions. DNA was eluted in 200 µl of distilled water and stored at -20°C until analysis. qPCR was prepared and performed as follows: 20 µL final volume containing 10 µL of Eurogentec Master Mix Roche (Eurogentec, Liège, Belgium), […] of each primer and the probe, 0.5 µL UDG, 3 µL of distilled water DNAse and RNAse free, and 5 µl of the DNA sample, was amplified in a CFX96 Real-Time system (BioRad Laboratories, Foster City, CA, USA) using the following thermal profile: one incubation step at 50°C for two minutes and an initial denaturation step at 95°C for three minutes, followed by 40 cycles of denaturation at 95°C for 15 seconds and annealing extension at 60°C for 30 seconds. Quantification was based on a standard curve which was 8 folds-serial dilution of plasmid of 10^8 copy of DNA/mL from the kDNA region, equivalent of 10000 parasites/mL; 5 µl of serial dilutions ranging from 10000 to 0.001 parasites/mL, was introduced into reaction tubes. Results were expressed as the number of Leishmania parasites present in 1 ml of blood, taking in account the volume (200 µl of blood) and the elution (200 µl) introduced during the extraction process.

L. infantum = experiment: Clinical evaluation (clinical score) in open-label randomized comparative clinical field trial of canine leishmaniosis; assay type: in vivo, dogs
Text: This was an open-label randomized comparative clinical field trial conducted in the north of Algeria. Prevalence observed in this area was 36%. Client-owned dogs of any age, breed, or gender were enrolled and 11 veterinary practitioners were responsible of the monitoring. All dogs had previously been naturally infected by L. infantum and presented clinical signs. The dogs were fully monitored and treatment could be changed to antimoniate meglumine/allopurinol at the owner's request if clinical impairment was noticed. A total of 187 dogs were enrolled for CanL. Among them, 42 adult sick dogs (30 males and 12 females), 3.8 years average age (min=1, max=11 years), weighing between 3-37 kg and of different breeds (8 german shepherd, 1 belgian shepherd malinois, 2 sloughy, 5 pointers, 6 braques, 1 bagnole, 1 americain staff, 1 beagle and 17 mixed breeds), were selected for this study.
Main inclusion criteria were: i) Dogs with at least two clinical manifestations related to CanL as detailed in the following Table 1) and ii) Dogs with positive serology for Leishmania by the immunochromatographic based qualitative rapid test WITNESS® Leishmania (Zoetis, France) and/or the quantitative indirect immunofluorescence antibody test (IFAT≥ 100) or positive PCR result obtained in blood.
Efficacy criteria were determined by reduction in clinical scores (i.e. the sum of clinical scores was lower than before treatment), in decreasing of parasite DNA and Leishmaniaspecific antibody titers. The score was defined according to the severity of each clinical sign and the final value was obtained from the sum of all the values (Table 1). Quantitative parasite load was estimated through qPCR and the antibody titers through quantitative IFAT. Table 1: Clinical signs related to CanL defined to evaluate the clinical scores of dogs.
Each manifestation was assigned a severity score ranging from 0 to 3, where 0 = none, 1 = mild, 2 = moderate, and 3 = severe (maximum total clinical score = 21). Mortality related to CanL was assessed by the highest score (22).
as §1, §2
The efficacy of treatments was assessed at each time-point based on the clinical response to treatment (evolution of clinical scores over time and the percentage reduction of the total clinical score). For each dog, the same veterinarian conducted all clinical evaluations to maintain consistency. Mortality due to CanL constitutes the higher score (22). The percentage of reduction was calculated according to the formula: Percentage reduction of CS % = (CSatD+XX−CSatD+0)/CS at D + 0) × 100 [formula]

[3] = D+30, artesunate 25 mg/kg orally 6 days (n=15), Glucantime 100 mg/kg s.c. 28 days + allopurinol 30 mg/kg orally one month (n=26)
[4] = D+30, mortality related to CanL included, artesunate 25 mg/kg orally 6 days (n=15), Glucantime 100 mg/kg s.c. 28 days + allopurinol 30 mg/kg orally one month (n=26)
[5] = D+90, artesunate 25 mg/kg orally 6 days (n=15), Glucantime 100 mg/kg s.c. 28 days + allopurinol 30 mg/kg orally one month (n=23)
[6] = D+90, mortality related to CanL included, artesunate 25 mg/kg orally 6 days (n=15), Glucantime 100 mg/kg s.c. 28 days + allopurinol 30 mg/kg orally one month (n=23)
[7] = D+180, artesunate 25 mg/kg orally 6 days (n=15), Glucantime 100 mg/kg s.c. 28 days + allopurinol 30 mg/kg orally one month (n=22)
[8] = D+180, mortality related to CanL included, artesunate 25 mg/kg orally 6 days (n=15), Glucantime 100 mg/kg s.c. 28 days + allopurinol 30 mg/kg orally one month (n=22)

## CC1CCC2C(C)C(O)OC3OC4(C)CCC1C32O4 (centres unmarked) [deoxygenated dihydroartemisinin]
[1]
  in vitro activity against L. infantum life stage forms (promastigote and amastigote): in vitro activity

## CC1CCC2C(C)C(OC(=O)CCC(=O)O)OC3OC4(C)CCC1C32O4 (centres unmarked) [deoxygenated artesunate]
[1]
  in vitro activity against L. infantum life stage forms (promastigote and amastigote): in vitro activity

## C[C@H]1[C@H](OC(=O)CCC(=O)O)O[C@@H]2O[C@@]3(C)CC[C@H]4[C@H](C)CC[C@@H]1[C@@]24OO3 [Artesunate]
[2]; D+30
  Leishmania-antibody titers (mean ± SD), IFAT: 128.57 ± 212.78
[2]; D+ 30, artesunate 7/14, Glucantime/allopurinol 4/26
  dogs that became seronegative: 50%
[2]; D+ 30, artesunate 11/14, Glucantime/allopurinol 15/26
  dogs with diminution in antibody titers: 78.57%
[2]; D+ 180
  Leishmania-antibody titers (mean ± SD), IFAT: 37.50 ± 60.77
[2]; end of the follow-up, Group 1 5/17, Group 2 7/12, P-Value 0.227
  dogs turned seronegative: 58.33%
[2]; end of the study, P <0.0001
  percentage of reduction in antibody titers, comparison of groups: higher percentage of reduction
L. infantum DNA; D+30
  Parasitemia No. Leish/mL of blood: 0 No. Leish/mL of blood and 14 No. Leish/mL of blood and 44 No. Leish/mL of blood and 1,7 No. Leish/mL of blood and 0,17 No. Leish/mL of blood
L. infantum DNA; D+30 versus D0
  Parasitemia (% of reduction): 100% and 19,54% and 63,93% and 99,27% and 98,45%
L. infantum DNA; D+ 90
  Parasitemia No. Leish/mL of blood: 0 No. Leish/mL of blood (3×) and 29 No. Leish/mL of blood
L. infantum DNA; D+ 90 versus D0
  Parasitemia (% of reduction): 100% (3×) and -66,67%
L. infantum DNA; D+ 180
  Parasitemia No. Leish/mL of blood: 0 No. Leish/mL of blood
L. infantum DNA; D+ 180 versus D0
  Parasitemia (% of reduction): 100%
L. infantum DNA; qPCR in blood, over-time after treatment, dogs negative / dogs positive at D0
  initially PCR-positive dogs that turned out to be Leishmania-negative: 5/5
L. infantum; D+30, D+90 and D+180, p<0.0001 (Mann-Whitney)
  mean percentage of reduction of clinical score, comparison between the two groups: More improvement
L. infantum; [3]
  PARTIAL AMELIORATION (%): 80%
  PARTIAL AMELIORATION, number of dogs: 12
L. infantum; [4]
  AGGRAVATION (%): 20%
  AGGRAVATION, number of dogs: 3
L. infantum; [5]
  COMPLETE AMELIORATION (%): 20%
  COMPLETE AMELIORATION, number of dogs: 3
  NO CHANGE (%): 6.66%
  NO CHANGE, number of dogs: 1
  PARTIAL AMELIORATION (%): 53.33%
  PARTIAL AMELIORATION, number of dogs: 8
L. infantum; [6]
  AGGRAVATION (%): 20%
  AGGRAVATION, number of dogs: 3
L. infantum; D+180 (6 months following up), artesunate 25 mg/kg orally 6 days (n=15), Glucantime 100 mg/kg s.c. 28 days + allopurinol 30 mg/kg orally one month (n=22)
  PARTIAL AMELIORATION (%): 46.66%
L. infantum; [7]
  COMPLETE AMELIORATION (%) (complete recovery, CS of 0): approximately 26.66%
  COMPLETE AMELIORATION, number of dogs: 4
  PARTIAL AMELIORATION, number of dogs: 7
L. infantum; D+180, artesunate 25 mg/kg orally 6 days (n=15), Glucantime 100 mg/kg s.c. 28 days + allopurinol 30 mg/kg orally one month (n=22), listed as ARTESUNATE
  COMPLETE AMELIORATION (%) (complete recovery, CS of 0): 26.66%
L. infantum; [8]
  AGGRAVATION (%) (clinical aggravation rates): 26.66%
  AGGRAVATION, number of dogs: 4
L. infantum; D+180, part of the aggravation rate, artesunate 2/15, control group 4/22
  mortality: 13.33%
L. infantum; between D+60 after the beginning of treatments and the visit D+90
  dogs died with increasing in the clinical signs related to CanL: two
[1]
  in vitro activity against L. infantum life stage forms (promastigote and amastigote): in vitro activity
